This is an account of results in paper PMC12254266, “Multicolored sequential resonance energy transfer for detection of simultaneous ligand binding at G protein-coupled receptors” (Nature Communications, 2025).

The structures appear in SMILES notation. Values joined by “and” are separate entries in the source; they are usually repeats but may differ in a detail not shown here. Equal values may be shown once.

Experiment [1] has as its target T1, Nluc-FFA1 (Homo sapiens, UniProt O14842).
T1 construct: expressed in transfected cells
Nature of the experiment: NanoBRET binding (saturation, competition, kinetics) at N terminal Nluc tagged FFA1. The conditions noted are these: Nluc-FFA1; for Kd: read-out: Kd, saturation BRET binding. The procedure:
(§1) Nluc-FFA1 or FFA1-Nluc Flp-In T-REx 293 cells were plated at 50,000 cells per well in poly-D-lysine coated white 96-well plates. Cells were cultured for 24 h in the plate before medium was replaced with medium containing 100 ng/mL of doxycycline to induce receptor expression. After culturing for a further 24 h, medium was removed, cells were washed with HBSS and incubated in HBSS for 30 min. To start the assay, NanoGlo substrate (Promega, N1110) was added to the cells at a 1:800 final dilution and incubated for 10 min at 37 °C. For endpoint assays, including both saturation and competition binding, test ligands were then added, including both fluorescent and unlabelled competing ligands as indicated, and plates incubated for a further 5 min at 37 °C. NanoBRET was then quantified in a CLARIOstar microplate reader (BMG Labtech) by measuring luminescent emission with the monochrometer set for the Nluc donor at 450–60 nm, and acceptor luminescent emission 540–60 nm (NBD), 600–80 nm (Cy3.5) or 690–100 nm (SulfoCy5), depending on which fluorophore was being tested. The acceptor/donor BRET ratio was then taken as a measure of fluorophore binding. For kinetic on then off NanoBRET experiments plates were washed the same way and substrate was added to the same concentration. However, 10 min after substrate was added plates were inserted into the CLARIOstar microplate reader set to 25 °C to take repeated measurements of luminescent emission for both the donor and the acceptor fluorophore being used. After 5 min of background measurements, the indicated concentration of fluorescent ligand was added using the plate reader injector and luminescent emission was monitored for ~10 min before the reader was paused to manually add a high concentration of appropriate competing ligand to initiate dissociation. The plate was returned to the reader and luminescence measurements were continued for a further 30 min to monitor dissociation of the fluorescent ligand. For kinetic experiments using multiple concentrations of fluorescent ligand, cells were placed in the plate reader immediately after the addition of Nano-Glo substrate and luminescent measurements were taken. After 5 min, the reader was paused to add the indicated concentrations of fluorescent ligand, before measurements were continued. To set non-specific binding for kinetic experiments, the indicated competing ligand was added 5 min before the addition of the fluorescent ligand.
A general note: Bioluminescence resonance energy transfer reports proximity on the nanometre scale.

In another experiment the target is FFA1 (Homo sapiens, UniProt O14842). Nature of the experiment: Ca2+ mobilisation (Fura2) in Flp-In T-REx 293 cells expressing Nluc-FFA1, FFA1-Nluc or untagged FFA1. The format is cell-based. Further details: expressed in transfected cells. The procedure: Nluc-FFA1, FFA1-Nluc or untagged FFA1 Flp-In T-REx 293 cells were plated at 50,000 cells per well in poly-D-lysine coated black clear bottom 96-well plates. Cells were then cultured for 24 h until reaching confluency before culture medium was replaced with medium containing 100 ng/mL of doxycycline to induce receptor expression. Cells were cultured for a further 24 h before the assay. On the day of the assay culture medium was removed and replaced with medium containing 3 μM Fura2-AM Ca^2+ dye. […] Fura2 fluorescent emission at 520 nm following excitation with each of 340 and 380 nm was measured in regular intervals both before and after adding test compounds for a total of 90 s per well. Calcium responses were determined by taking the peak 340/380 ratio after first subtracting the ratios obtained prior to addition of test compound.

Another experiment addresses FFA1-Nluc (Homo sapiens, UniProt O14842). Description: NanoBRET binding (saturation, kinetics) at C terminal Nluc tagged FFA1. Also noted: expressed in transfected cells. The settings on record: FFA1-Nluc, 95% confidence interval in parentheses; for Kd: read-out: Kd, saturation BRET binding; for BMax, saturation BRET binding: specific BRET. The procedure:
as §1

For experiment [2], the target named is T1, Nluc-FFA1. Nature of the experiment: DISCo-BRET with TUG-2591 and TUG-2597 at N terminal Nluc tagged FFA1. The class given is binding. The conditions noted are these: Figure 3F, 10 nM, technical duplicate. The procedure:
Nluc-FFA1 or FFA1-Nluc Flp-In T-REx 293 cells were plated at 50,000 cells per well in poly-D-lysine coated white 96-well plates. Cells were cultured for 24 h in the plate before medium was replaced with medium containing 100 ng/mL of doxycycline to induce receptor expression. After culturing for a further 24 h, culture medium was removed, cells washed with HBSS and incubated in HBSS for 30 min. For all DISCo-BRET formats Nano-Glo substrate was then added at a 1:800 final dilution and cells incubated for 10 min. Following substrate addition experimental set up different among the three formats: endpoint, spectra scan, and kinetics.
For endpoint experiments all fluorescent and unlabelled ligands were added to the cells and incubated for 5 min at 37 °C. Luminescent emission was then measured using a CLARIOstar microplate reader with monochromator set at 450–60 nm (Nluc), 540−60 nm (NBD) and 690–100 nm (SulfoCy5). BRET ratios were then calculated as either SulfoCy5 emission divided by NBD emission, SulfoCy5 emission divided by Nluc emission, or NBD emission divided by Nluc emission.
For spectra scan experiments all indicated fluorescent and unlabelled ligands were added to the cells and cells incubated for 5 min at 37 °C. Luminescence emissions were then measured from each well of the plate from 440 nm – 740 nm with a 5 nm resolution using a CLARIOstar microplate. […]

The mark [3] stands for this setting: 95% confidence interval in parentheses.
Where [4] appears, read: log[Ligand] -5.5, single technical replicates.
The mark [5] stands for this setting: log[Ligand] -6, single technical replicates.
Setting [6] is: log[Ligand] -6.5, single technical replicates.
The mark [7] stands for this setting: log[Ligand] -7, single technical replicates.
The mark [8] stands for this setting: log[Ligand] -8, single technical replicates.

T1 sequence (O14842 whole entry): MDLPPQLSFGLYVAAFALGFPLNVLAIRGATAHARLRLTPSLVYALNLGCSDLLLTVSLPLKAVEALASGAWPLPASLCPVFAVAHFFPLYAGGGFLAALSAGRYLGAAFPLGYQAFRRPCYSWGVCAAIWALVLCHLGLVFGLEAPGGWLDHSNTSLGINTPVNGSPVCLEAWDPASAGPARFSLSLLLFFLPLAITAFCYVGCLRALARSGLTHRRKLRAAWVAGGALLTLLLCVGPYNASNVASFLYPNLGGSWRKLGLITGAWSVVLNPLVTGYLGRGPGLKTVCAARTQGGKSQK
Sequence of FFA1-Nluc (O14842 whole entry): as above
Sequence of FFA1 (O14842 whole entry): as above

Consider `Cc1cc(OCCOCCNC(=O)CCCCC[N+]2=C(/C=C/C=C3/N(C)c4ccc5ccccc5c4C3(C)C)C(C)(C)c3c2ccc2ccccc32)ccc1-c1cccc(COc2ccc(CCC(=O)O)c(F)c2)c1.O=C([O-])C(F)(F)F` [TUG-2287], for which the results for the Kd on Nluc-FFA1 [1] (setting [3]) and on FFA1-Nluc were 200 nM and 25 nM, respectively. In addition, at FFA1 (in words), the “activity in Ca2+ assays” value was “no measurable activity”. The “Ca2+ Response as a % of T360 Response” value at FFA1 (setting [4]) was 17.83% and 27.69% and 20.05% and -0.41% and 1.34% and 0.65%; on FFA1 (setting [5]) it was 5.00% and 8.24% and 2.11% and -0.20% and 0.45% and 0.71%; at FFA1 (setting [6]), 1.48% and 8.34% and 1.53% and -0.18% and -0.52% and -0.47%; on FFA1 (setting [7]) it was 0.96% and 2.49% and 1.27% and 0.43% and 0.51% and 0.58%; at FFA1 (setting [8]), 2.24% and 3.57% and 0.05% and 1.00% and 0.97% and 1.13%; on FFA1 (log[Ligand] -9, single technical replicates), 1.37% and 5.16% and 0.91% and -0.52% and -0.36% and 0.88%. On FFA1-Nluc, the “BMax, saturation BRET binding” value was 0.007 (0.005−0.01).

For orientation: pEC50 means the negative decadic logarithm of the EC50, by convention in mol/L. `Cc1cc(OCCOCCNC(=O)CCCCCN2\C(=C/C=C/C=C/C3=[N+](C)c4ccc(S(=O)(=O)[O-])cc4C3(C)C)C(C)(C)c3ccccc32)ccc1-c1cccc(COc2ccc(CCC(=O)O)c(F)c2)c1` [TUG-2355]: the Kd at Nluc-FFA1 [1] (setting [3]) stood at 520 nM; on FFA1-Nluc, 240 nM. The “Specific BRET” value on Nluc-FFA1 [1] ([TUG-2355] 1000 nM, technical triplicates) was 0.0476 and 0.0570 and 0.0671 and 0.0472 and 0.0443 and 0.0544. Besides, the “BMax, saturation BRET binding” value at Nluc-FFA1 [1] (specific BRET, 95% confidence interval in parentheses) is listed as 0.083 (0.060−0.14); on FFA1-Nluc, 0.022 (0.015−0.038). Besides, the pEC50 on FFA1 (Ca2+ data, mean±SEM, NR = No response) amounted to 5.43±0.06. Further, the “Ca2+ Response as a % of T360 Response” value at FFA1 (FFA1-Nluc cells, log[ligand] -7, technical replicates) was -1.03% and 4.29% and 0.96%; on FFA1 (FFA1-Nluc cells, log[ligand] -7.5, technical replicates), 1.35% and 1.54% and 1.46% and 0.43% and 0.51% and 0.58%; on FFA1 (FFA1-Nluc, log[TUG-2355] -5, technical triplicates), 62.07 % of T360 Response and 53.90 % of T360 Response and 49.62 % of T360 Response and 44.94 % of T360 Response and 53.23 % of T360 Response and 56.24 % of T360 Response and 74.69 % of T360 Response and 72.06 % of T360 Response; at FFA1 (Nluc-FFA1, log[TUG-2355] -5, technical triplicates), 78.72 % of T360 Response and 80.47 % of T360 Response and 78.90 % of T360 Response and 53.23 % of T360 Response and 56.24 % of T360 Response and 77.92 % of T360 Response and 57.96 % of T360 Response and 82.25 % of T360 Response; on FFA1 (Nluc-FFA1 cells, log[ligand] -7, technical replicates), 1.27% and 0.43% and 0.51% and 0.58% and 0.96% and 2.49%; at FFA1 (Nluc-FFA1 cells, log[ligand] -7.5, technical replicates), 2.49% (2×) and 2.03%. In addition, the “Ca2+ Response as a % of T360 Response” value is 0.05% and 1.00% and 0.97% and 1.13% at FFA1 (Nluc-FFA1 cells, log[ligand] -8, technical replicates); 81.14% and 82.71% and 91.68% and 50.63% and 60.58% and 55.59% and 78.02% and 80.44% and 71.73% on FFA1 (log[Ligand] -4.5, single technical replicates); 78.72% and 80.47% and 78.90% and 53.23% and 56.24% and 77.92% and 57.96% and 82.25% at FFA1 (log[Ligand] -5, single technical replicates); 47.56% and 39.50% and 44.99% and 26.68% and 35.66% and 31.10% and 60.09% and 62.76% and 60.18% at FFA1 (setting [4]); 6.20% and 5.86% and 4.09% and -1.05% and -0.0134% and -0.48% and -1.46% and 7.50% and -1.37% at FFA1 (setting [5]); 0.81% and -1.43% and -1.40% and -2.16% and -1.38% and 1.40% and -3.04% and 3.51% and -1.19% at FFA1 (setting [6]). In addition, the “Ca2+ Response as a % of T360 Response” value at FFA1 (setting [7]) is 1.12% and 1.72% and 2.65% and -2.38% and -2.12% and 0.39% and -2.69% and 2.22% and 0.50%; at FFA1 (setting [8]), -2.32% and 0.08% and 1.34% and 0.25% and -0.22% and -1.88% and -1.89% and 3.89% and -2.52%. This molecule returned an EMax at FFA1 (percentage of response to 10 μM T360, NR = No response) of 87±10%.

`Cc1cc(OCCCNC(=O)CCCN2\C(=C/C=C/C=C/C3=[N+](C)c4ccc(S(=O)(=O)[O-])cc4C3(C)C)C(C)(C)c3ccccc32)ccc1-c1cccc(COc2ccc(CCC(=O)O)c(F)c2)c1` [TUG-TUG-2591]: the “Area under the curve from luminecent emission, Total” value on Nluc-FFA1 [2] is 0.1968 and 0.1494 and 0.1776 and 0.1635 and 0.1742 and 0.2754.
